Columns and labels:
Assay in all cases: relative viability (nuclei count vs DMSO), 5 days (fraction); higher = more cells survive
RU-SKI 43 + Decitabine = compound: CC[C@@H](C)CNCC(=O)N1CCC2=C([C@@H]1COC3=CC=CC(=C3)C)C=CS2 [RU-SKI 43] + Nc1ncn([C@H]2C[C@H](O)[C@@H](CO)O2)c(=O)n1 [Decitabine] (partner 2 µM)
Summary of the method: (§1)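 Nuclei were stained with Hoechst during a one-step fixation (final 0.05% Triton X-100, 1% formaldehyde, 1 ug/ml Hoechst) carried out 5 days after dosing, then counted on 4× images. The cells, lung cancer lines in 1536-well plates, had been dosed by pin tool the day after seeding with one drug alone or a fixed anchor-drug dose plus five library-drug doses (not always all listed) in √10 steps. Relative viability is the nuclei count in treated wells divided by that in vehicle wells, and each value is the median of duplicate plates.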

Irinotecan + Bortezomib = compound: CCc1c2c(nc3ccc(OC(=O)N4CCC(N5CCCCC5)CC4)cc13)-c1cc3c(c(=O)n1C2)COC(=O)[C@]3(O)CC [Irinotecan] + CC(C)C[C@H](NC(=O)[C@H](Cc1ccccc1)NC(=O)c1cnccn1)B(O)O [Bortezomib] (partner 0.002 µM)
Summary of the method: as §1

Irinotecan + Foretinib = compound: CCc1c2c(nc3ccc(OC(=O)N4CCC(N5CCCCC5)CC4)cc13)-c1cc3c(c(=O)n1C2)COC(=O)[C@]3(O)CC [Irinotecan] + COc1cc2c(Oc3ccc(NC(=O)C4(C(=O)Nc5ccc(F)cc5)CC4)cc3F)ccnc2cc1OCCCN1CCOCC1 [Foretinib] (partner 0.25 µM)
Summary of the method: as §1

Cell Line	relative viability (RU-SKI 43 + Decitabine; first compound 0.1 µM)	relative viability (RU-SKI 43 + Decitabine; first compound 0.3162 µM)	relative viability (RU-SKI 43 + Decitabine; first compound 1 µM)	relative viability (RU-SKI 43 + Decitabine; first compound 3.162 µM)	relative viability (RU-SKI 43 + Decitabine; first compound 10 µM)	relative viability (Irinotecan + Bortezomib; first compound 0.6325 µM)	relative viability (Irinotecan + Bortezomib; first compound 2 µM)	relative viability (Irinotecan + Bortezomib; first compound 6.325 µM)	relative viability (Irinotecan + Bortezomib; first compound 20 µM)	relative viability (Irinotecan + Foretinib; first compound 0.6325 µM)	relative viability (Irinotecan + Foretinib; first compound 2 µM)	relative viability (Irinotecan + Foretinib; first compound 6.325 µM)	relative viability (Irinotecan + Foretinib; first compound 20 µM)
LCLC-97TM1	0.24	0.239	0.243	0.237	0.246	0.41	0.387	0.148	0.176	0.435	0.172	0.151	0.194
SK-LU-1	0.571	0.684	0.612	0.593	0.535	0.887	0.672	0.291	0.47	0.623	0.382	0.295	0.224
COR-L23	0.428	0.369	0.448	0.514	0.433	0.506	0.396	0.211	0.113	0.525	0.446	0.183	0.192
NCI-H2126	0.591	0.574	0.523	0.615	0.554		1.08	0.632	0.34		1.18	0.67	0.51
EPLC-272H	0.358	0.369	0.324	0.365	0.353	0.744	0.635	0.317	0.217	0.283	0.235	0.168	0.297
NCI-H2009	0.374	0.332	0.364	0.376	0.283	0.294	0.515	0.228	0.0808	0.973	0.688	0.311	0.16
NCI-H2347	0.604	0.542	0.651	0.617	0.636	0.512	0.918	0.493	0.555	0.53	0.662	0.41	0.665
LU99A	0.746	1.1	1.05	0.91	0.711	0.42	0.326	0.18	0.249	0.366	0.253	0.187	0.225
NCI-H1915	0.272	0.257	0.285	0.25	0.255	0.537	0.445	0.24	0.148	0.45	0.283	0.192	0.2
H3255	0.564	0.697	0.683	0.619	0.579	0.432	0.529	0.299	0.392	0.398	0.558	0.36	0.305
BEN	0.806	0.692	0.812	0.729	0.78	0.547	0.561	0.218	0.296	0.328	0.613	0.206	0.324

Reference: the supplement of paper PMC10307832
